# Assay results published in patent US8916607B2, “Use of piperphentonamine or salts thereof in manufacture of medicaments for treating brain diseases” (Guangzhou Municipal Zhongwei Biotechnology Limited Company, priority 2009, dated 2014).
# Marks after values point to notes of the source that are not given here.
# Experiments:
# [1] = system: cerebral hemorrhage in rats induced by collagenase; experiment: ICH model induced by collagenase: histopathological observation; assay type: in vivo, Wistar rats; details: large dose (2 mg/kg) pretreatment
# Protocol: Influence of piperphentonamine hydrochloride on pathological morphology of cerebral hemorrhage in rats was observed. Each group animals were selected randomly, anesthetized deeply by chloral hydrate at predetermined time point, decollated and the brain were taken out rapidly, then, the brain tissue slices with hematoma (about 5 mm) were cut, and put into 10% formaldehyde solution immediately, fixed for 24 h followed by dehydration by graded ethanol, transparentizing by xylene, immersing in paraffin, embedding, slicing (5 μm), HE staining and sealing. The pathological changes area and the pathological change of the adjacent brain tissue were observed by optical microscope.
# [2] = system: cerebral hemorrhage in rats induced by collagenase; experiment: cerebral hemorrhage (ICH) model induced by collagenase: neurology score; assay type: in vivo, Wistar rats
# Protocol: Animals are randomly divided into five groups: sham operation 24 h group; cerebral hemorrhage (Intracerebral Haemorrhage, ICH)+physiological saline group (model); ICH+piperphentonamine hydrochloride (JBTA, 2 mg/kg) group, called as high dose group (h); ICH+piperphentonamine hydrochloride (JBTA, 0.5 mg/kg) group, called as low dose group (1); ICH+nimodipine (Nim, 0.5 mg/kg) group. The last four groups are divided into 4 h, 8 h, 12 h, 24 h as four time subgroups respectively. Physiological saline solution, piperphentonamine hydrochloride and nimodipine are intravenously injected from rat tail before the ICH model is established for 30 minutes, once a day. Injecting slowly, the total amount of drug liquid is controlled in 1 ml/200 g body weight: physiological saline solution also being administered in 1 ml/200 g body weight. Each group has 7 Wistar rats.
# The specific steps are as following: after the experimental rats are anesthetized by injecting chloral hydrate (350 mg/kg) in intraperitoneal, and being supinely immobilized in a stereotaxic instrument, and make the rat anterior fontanelle and posterior fontanelle in the same plane according to localization method reported by BAO Xinmin, etc. Being locally disinfected by iodine, incising in the midmost of scalp, scissoring the periosteum, exposing the anterior fontanelle, drilling a 1 mm diameter hole with thickness close to duramater in 3 mm left to the midline by number five needle. Inserting needle along the hole by the micro syringe fixed on a stereotaxic, the depth of needle insertion is 5.8 mm (i.e., the caudate nucleus position), slowly injecting collagenase VI 0.5 U. Injection time is 3 min, keeping for 5 min after injection, then pull the needle out, suturing the skin, and putting the rat into cage and feed. Inserting the needle and not injecting drugs in sham operation group, the remaining operations is the same as the above.
# After animals wake up, scoring nerve function defect of each group immediately according to the grading classification standards of nerve defect reported by Bedersog (litter improved).
# Choosing the animals with the score of 3 and more into the experiment, the animals are bred in different cages, eat and drink normally. Temperature is controlled in 20 to 25° C., score in 4 h, 8 h, 12 h, 24 h after establishment of the model.
# Divide the animals randomly into five groups: sham operation (sham) 24 h group; ICH+normal saline group (model); ICH+piperphentonamine maleate (4 mg/kg) group, namely high dose group (h); ICH+piperphentonamine maleate (2 mg/kg) group, namely low dose group (1); ICH+nimodipine (0.5 mg/kg) group. The last four groups were divided into four time subgroup of 4 h, 8 h, 12 h and 24 h. Physiological solution, piperphentonamine maleate and nimodipine were injected intravenous from rat tail vein 30 minutes before the ICH model made, once a day. Inject slowly, the total amount of drug liquid was controlled in 1 ml/200 g body weight: normal saline was also administered in 1 ml/200 g body weight. Each group has seven Wistar rats.
# [3] = system: cerebral ischemia/reperfusion injury in mice; experiment: focal cerebral ischemia reperfusion injury model in mice (suture method), TTC infarction area; assay type: in vivo; details: ischemia 2 h, reperfusion 24 h
# Protocol: Focal cerebral ischemia reperfusion injury model is made in mice by using suture method, being ischemia for 2 h, then reperfusing for 24 h, and it proves that piperphentonamine hydrochloride has protective effect on ischemia-reperfusion cerebral injury.
# Mouse is anesthetized by injecting 10% chloral hydrate (350 mg/kg) in intraperitoneal, being intravenously administered 1 mg/kg, 5 mg/kg piperphentonamine hydrochloride or 20 u/kg coenzyme A, (COA), making the cerebral artery ischemia like as the method of example 6. Pulling out nylon thread from the internal carotid artery after the operation in 2 hours, until the end of the nylon thread is at bifurcation of the common carotid artery. Reperfusing for 24 hours. Except for not inserting a thread, the rest of steps for the false operation group are same as the above-mentioned. After reperfusion for 24 h, decapitating and taking the brain of survived mice, rapidly putting in −20° C. freezer for 5 min, then removing, quickly cutting coronal slices of 2.0 mm thickness from forward to back on the operating table, putting the slices in phosphate buffer solution with 1% TTC immediately, incubating for 30 min in avoiding light at room temperature. Flip brain slices to make them touch staining solution uniformly every 10 minute, and scanning and observing the dyeing results.
# The local cerebral ischemia model of mice was established by using thread bolt method, to validate that piperphentonamine acetate has protective effect on experimental cerebral ischemia animal.
# [4] = system: ischemia reperfusion injury of mouse brain; experiment: SOD activity, MDA and GSH content of brain homogenate after cerebral ischemia reperfusion; assay type: in vivo, Kunming mice
# Protocol: Ischemia reperfusion method in the mouse and the administration method are the same as above. After ischemia reperfusion is completed, executing by decollating, removing the brain and making homogenate by phosphate buffer in 0° C., determining the activity of SOD by pyrogallol autoxidation method, the content of MDA by TBA method, and the content of GSH by DTNB method, quantitate the protein by Coomassie brilliant blue method.
# human brain disease = experiment: research in treating human brain diseases (no details); assay type: in vivo
# [5] = system: cerebral hemorrhage in rats induced by collagenase; experiment: ICH model induced by collagenase: NO in brain tissue by nitrate reductase method; assay type: in vivo, Wistar rats
# Excerpt: Rats in each group were anesthetized by chloral hydrate, decollated rapidly and the brain take were taken out. The brain tissue around the hole was cut and procured, weighed precisely, and made into a 10% tissue homogenate using a glass homogenizer in an ice bath environment with physiological saline as homogenized medium, the supernatant of which was taken to be determined the content of NO by nitrate reductase method.
smiles,measurement,setting,value
"CN(CCC(=O)/C=C/c1ccc(O)cc1)CCc1ccc2c(c1)OCO2.Cl [piperphentonamine hydrochloride, Piperphentonamine hydrochloride]",pathological morphology of cerebral hemorrhage,[1],tissue edema and inflammatory cell infiltration after cerebral hemorrhage were reduce obviously
same,neurological score,"[2]; 0.5 mg/kg iv 30 min before ICH, 4 h",4.5 ± 0.87
same,neurological score,"[2]; 0.5 mg/kg iv 30 min before ICH, 8 h",4.29 ± 1.02
same,neurological score,"[2]; 0.5 mg/kg iv 30 min before ICH, 12 h",3.65 ± 1.19
same,neurological score,"[2]; 0.5 mg/kg iv 30 min before ICH, 24 h",3.21 ± 1.61
same,neurological score,"[2]; 2 mg/kg iv 30 min before ICH, 4 h",4.07 ± 0.74
same,neurological score,"[2]; 2 mg/kg iv 30 min before ICH, 8 h",3.86 ± 1.19
same,neurological score,"[2]; 2 mg/kg iv 30 min before ICH, 12 h",2.36 ± 0.8*^Δ
same,neurological score,"[2]; 2 mg/kg iv 30 min before ICH, 24 h",1.71 ± 0.57**^Δ
same,The percentage of infarction area occupied the entire coronal plane (%),[3]; 1 mg/kg iv,19.78 ± 2.61 %
same,The percentage of infarction area occupied the entire coronal plane (%),[3]; 5 mg/kg iv,16.55 ± 2.32 %
same,GSH,[4]; 20 mg/kg,10.34 ± 3.17 mg/g pr
same,MDA,[4]; 20 mg/kg,4.48 ± 1.03 nmol/g pr
same,SOD,[4]; 20 mg/kg,0.34 ± 0.02 Ku/g pr
same,GSH,[4]; 40 mg/kg,13.1 ± 4.34 mg/g pr
same,MDA,[4]; 40 mg/kg,3.74 ± 0.67 nmol/g pr
same,SOD,[4]; 40 mg/kg,0.37 ± 0.02 Ku/g pr
same,GSH,[4]; 80 mg/kg,14.77 ± 4.61 mg/g pr
same,MDA,[4]; 80 mg/kg,3.53 ± 0.76 nmol/g pr
same,SOD,[4]; 80 mg/kg,0.42 ± 0.04 Ku/g pr
same,treating human brain and other diseases,human brain disease,obvious effect and clinical significance
same,NO,"[5]; 2 mg/kg, ICH rat brain tissue",1.65 ± 0.03^Δ μmol/g pro
same,NO content in brain tissue,"[5]; high and low dose groups (2, 0.5 mg/kg)",could decrease the NO content in brain tissue
